The supplement of paper PMC10307832

Key:
Assay in all cases: relative viability (nuclei count vs DMSO), 5 days (fraction); higher = more cells survive
[1] = compound: CCC1=CN=CN=C1N2CCN(CC2)CC3=NC4=C(N3)C=C(C=C4)C(F)(F)F + Cc1cc(Nc2cc(N3CCN(C)CC3)nc(Sc3ccc(NC(=O)C4CC4)cc3)n2)n[nH]1 [Tozasertib] (partner 0.1 µM)
In short: (§1)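 The day after seeding in 1536-well plates, lung cancer cell lines were treated by pin tool with a single drug, or with a fixed anchor-drug dose together with five library-drug doses (not always all listed) in √10 steps. After 5 days, a combined fix-and-stain solution (final 0.05% Triton X-100, 1% formaldehyde, 1 ug/ml Hoechst) was added. Nuclei counted on 4× images gave relative viability as treated counts over vehicle counts, reported as the median of duplicate plates.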

[2] = compound: CCn1c(-c2nonc2N)nc2cnc(Oc3cccc(NC(=O)c4ccc(OCCN5CCOCC5)cc4)c3)cc21 + COc1cccc2cc(-c3nc([C@H]4CC[C@H](C(=O)O)CC4)n4ncnc(N)c34)[nH]c12 [OSI-027] (partner 0.5 µM)
In short: as §1

Mirin + Linsitinib = compound: N=C1NC(=O)/C(=C/c2ccc(O)cc2)S1 [Mirin] + C[C@]1(O)C[C@@H](c2nc(-c3ccc4ccc(-c5ccccc5)nc4c3)c3c(N)nccn32)C1 [Linsitinib] (partner 1 µM)
In short: as §1

Mirin + Decitabine = compound: N=C1NC(=O)/C(=C/c2ccc(O)cc2)S1 [Mirin] + Nc1ncn([C@H]2C[C@H](O)[C@@H](CO)O2)c(=O)n1 [Decitabine] (partner 2 µM)
In short: as §1

Row | Cell Line | relative viability ([1]; first compound 0.04 µM) | relative viability ([1]; first compound 0.1265 µM) | relative viability ([1]; first compound 0.4 µM) | relative viability ([1]; first compound 1.265 µM) | relative viability ([1]; first compound 4 µM) | relative viability ([2]; first compound 0.04 µM) | relative viability ([2]; first compound 0.1265 µM) | relative viability ([2]; first compound 0.4 µM) | relative viability ([2]; first compound 4 µM) | relative viability (Mirin + Linsitinib; first compound 0.25 µM) | relative viability (Mirin + Linsitinib; first compound 0.7906 µM) | relative viability (Mirin + Linsitinib; first compound 2.5 µM) | relative viability (Mirin + Linsitinib; first compound 7.906 µM) | relative viability (Mirin + Linsitinib; first compound 25 µM) | relative viability (Mirin + Decitabine; first compound 0.25 µM) | relative viability (Mirin + Decitabine; first compound 0.7906 µM) | relative viability (Mirin + Decitabine; first compound 2.5 µM) | relative viability (Mirin + Decitabine; first compound 7.906 µM) | relative viability (Mirin + Decitabine; first compound 25 µM) | relative viability ([2]; first compound 1.265 µM)
1 | HCC-15 | 0.444 | 0.357 | 0.381 | 0.449 | 0.391 | 0.806 | 0.617 | 0.324 | 0.536 | 0.791 | 0.849 | 0.897 | 0.779 | 0.534 | 0.612 | 0.517 | 0.618 | 0.59 | 0.505 | –
2 | H3255 | 0.63 | 0.413 | 0.674 | 0.436 | 0.715 | 0.831 | 0.713 | 0.603 | 0.638 | 0.9 | 0.886 | 0.972 | 0.954 | 0.97 | 0.595 | 0.577 | 0.649 | 0.467 | 0.758 | 0.506
3 | NCI-H647 | 0.253 | 0.296 | 0.375 | 0.206 | 0.393 | 0.591 | 0.393 | 0.323 | 0.278 | 1.37 | 1.44 | 1.19 | 1 | 0.63 | 0.446 | 0.423 | 0.361 | 0.401 | 0.387 | 0.34
4 | NCI-H2126 | 0.837 | 0.812 | 0.813 | 0.734 | 0.832 | 0.811 | 0.754 | – | 0.899 | 0.713 | 0.707 | 0.756 | 0.639 | 0.698 | 0.556 | 0.534 | 0.586 | 0.557 | 0.461 | –
5 | NCI-H727 | 0.646 | 0.621 | 0.648 | 0.42 | 0.619 | 1.01 | 0.924 | 0.441 | 0.818 | 0.328 | 0.39 | 0.3 | 0.383 | 0.333 | 0.603 | 0.83 | 1 | 0.865 | 0.922 | 0.612
6 | EMC-BAC-2 | 0.293 | 0.3 | 0.279 | – | 0.268 | 0.364 | 0.287 | 0.161 | 0.2 | 0.793 | 0.825 | 0.883 | 0.853 | 0.815 | 0.997 | 1.02 | 0.977 | 0.949 | 1.09 | 0.18
7 | NCI-H1355 | 0.566 | 0.513 | 0.495 | 0.413 | 0.421 | 0.477 | 0.385 | 0.197 | 0.312 | 0.799 | 0.852 | 0.975 | 0.861 | 0.747 | 0.365 | 0.367 | 0.391 | 0.38 | 0.365 | 0.306
8 | NCI-H2347 | 0.405 | 0.454 | 0.579 | 0.389 | 0.513 | 0.502 | 0.505 | 0.426 | 0.333 | 0.923 | 1.09 | 0.98 | 0.989 | 0.985 | 0.595 | 0.599 | 0.604 | 0.604 | 0.611 | 0.334
9 | NCI-H1651 | 0.82 | 0.728 | 0.687 | 0.583 | 0.714 | 0.745 | 0.684 | 0.596 | 0.404 | 1.06 | 1.01 | 0.982 | 0.741 | 0.856 | 0.259 | 0.577 | 0.657 | 0.536 | 0.612 | 0.57
10 | NCI-H1975 | 0.732 | 0.785 | 0.679 | 0.61 | 0.689 | 0.616 | 0.465 | 0.322 | 0.208 | 0.925 | 0.911 | 1.07 | 0.989 | 1.04 | 0.427 | 0.329 | 0.402 | 0.36 | 0.401 | 0.196
11 | COR-L23 | 0.219 | 0.207 | 0.201 | 0.157 | 0.183 | 0.686 | 0.54 | 0.326 | 0.144 | 1.01 | 1.16 | 1.02 | 0.955 | 0.892 | 0.447 | 0.505 | 0.466 | 0.426 | 0.409 | 0.207
12 | HCC-44 | 0.955 | 0.962 | 0.905 | 0.597 | 1.06 | 0.533 | 0.423 | 0.175 | 0.225 | 0.64 | 0.789 | 0.703 | 0.711 | 0.501 | 0.938 | 0.958 | 0.99 | 0.922 | 1.01 | 0.111
13 | LOU-NH91 | 0.625 | 0.68 | 0.669 | 0.585 | 0.657 | 0.741 | 0.561 | 0.44 | 0.471 | 0.956 | – | 1.01 | 0.936 | 1.04 | 0.799 | 0.843 | 0.874 | 0.9 | 1.03 | 0.426
